Results published in ChEMBL document CHEMBL5532698, “2,3-Dihydroquinazolin-4(1H)-ones and quinazolin-4(3H)-ones as broad-spectrum cytotoxic agents and their impact on tubulin polymerisation” (RSC Med Chem, 2024).

Key:
U-87 MG = assay: Antiproliferative activity against human U87 cells assessed as cell growth inhibition at 25 uM incubated for 72 hrs by MTT assay relative to control; assay type: functional, U-87MG ATCC
DU-145 = assay: Antiproliferative activity against human DU-145 cells assessed as cell growth inhibition at 25 uM incubated for 72 hrs by MTT assay relative to control; assay type: functional
MIA PaCa-2 = assay: Antiproliferative activity against human MIA PaCa-2 cells assessed as cell growth inhibition at 25 uM incubated for 72 hrs by MTT assay relative to control; assay type: functional
NCI-H460 = assay: Antiproliferative activity against human NCI-H460 cells assessed as cell growth inhibition at 25 uM incubated for 72 hrs by MTT assay relative to control; assay type: functional
A-431 = assay: Antiproliferative activity against human A-431 cells assessed as cell growth inhibition at 25 uM incubated for 72 hrs by MTT assay relative to control; assay type: functional
[1] = Antiproliferative activity against human SJG2 cells assessed as cell growth inhibition at 25 uM incubated for 72 hrs by MTT assay relative to control; assay type: functional; conditions: SJ-G2
A2780 = assay: Antiproliferative activity against human A2780 cells assessed as cell growth inhibition at 25 uM incubated for 72 hrs by MTT assay relative to control; assay type: functional
[2] = Cytotoxicity against human MCF-10A cells assessed as cell growth inhibition at 25 uM incubated for 72 hrs by MTT assay relative to control; assay type: toxicity, cell-based
MCF7 = assay: Antiproliferative activity against human MCF7 cells assessed as cell growth inhibition at 25 uM incubated for 72 hrs by MTT assay relative to control; assay type: functional
HT-29 = assay: Antiproliferative activity against human HT-29 cells assessed as cell growth inhibition at 25 uM incubated for 72 hrs by MTT assay relative to control; assay type: functional
BE(2)-C = assay: Antiproliferative activity against human BE2C cells assessed as cell growth inhibition at 25 uM incubated for 72 hrs by MTT assay relative to control; assay type: functional

O=C1NC(c2ccccc2[N+](=O)[O-])Nc2ccccc21 (stereo not given)
inhibition at 25 µM (U-87 MG): 16%
inhibition at 25 µM (DU-145): 27%
inhibition at 25 µM (MIA PaCa-2): 21%
inhibition at 25 µM (NCI-H460): 35%
inhibition at 25 µM (A-431): 36%
inhibition at 25 µM [1]: 33%
inhibition at 25 µM (A2780): 33%
inhibition at 72 h, 25 µM [2]: 16%
inhibition at 25 µM (MCF7): 16%
inhibition at 25 µM (HT-29): 28%
inhibition at 25 µM (BE(2)-C): < 10%

N#Cc1cccc(C2NC(=O)c3ccccc3N2)c1 (stereo not given)
inhibition at 25 µM (U-87 MG): 19%
inhibition at 25 µM (DU-145): 26%
inhibition at 25 µM (MIA PaCa-2): 14%
inhibition at 25 µM (NCI-H460): 17%
inhibition at 25 µM (A-431): 34%
inhibition at 25 µM [1]: 18%
inhibition at 25 µM (A2780): 54%
inhibition at 72 h, 25 µM [2]: 12%
inhibition at 25 µM (MCF7): 60%
inhibition at 25 µM (HT-29): 31%
inhibition at 25 µM (BE(2)-C): 20%

CCCCC1NC(=O)c2ccccc2N1 (stereo not given)
inhibition at 25 µM (U-87 MG): 9%
inhibition at 25 µM (DU-145): 25%
inhibition at 25 µM (MIA PaCa-2): 16%
inhibition at 25 µM (NCI-H460): < 10%
inhibition at 25 µM (A-431): 30%
inhibition at 25 µM [1]: < 10%
inhibition at 25 µM (A2780): 59%
inhibition at 72 h, 25 µM [2]: 13%
inhibition at 25 µM (MCF7): 25%
inhibition at 25 µM (HT-29): 32%
inhibition at 25 µM (BE(2)-C): 38%

O=C1NC(C2CCCC2)Nc2ccccc21 (stereo not given)
inhibition at 25 µM (U-87 MG): 11%
inhibition at 25 µM (DU-145): 22%
inhibition at 25 µM (MIA PaCa-2): 19%
inhibition at 25 µM (NCI-H460): < 10%
inhibition at 25 µM (A-431): 15%
inhibition at 25 µM [1]: < 10%
inhibition at 25 µM (A2780): 39%
inhibition at 72 h, 25 µM [2]: 12%
inhibition at 25 µM (MCF7): 35%
inhibition at 25 µM (HT-29): 22%
inhibition at 25 µM (BE(2)-C): 20%

N#Cc1ccc(C2NC(=O)c3ccccc3N2)cc1 (stereo not given)
inhibition at 25 µM (U-87 MG): < 10%
inhibition at 25 µM (DU-145): 10%
inhibition at 25 µM (MIA PaCa-2): 11%
inhibition at 25 µM (NCI-H460): 11%
inhibition at 25 µM (A-431): < 10%
inhibition at 25 µM [1]: 14%
inhibition at 25 µM (A2780): 18%
inhibition at 72 h, 25 µM [2]: 10%
inhibition at 25 µM (MCF7): 40%
inhibition at 25 µM (HT-29): 16%
inhibition at 25 µM (BE(2)-C): < 10%

CCCC/C=C/c1nc2ccccc2c(=O)[nH]1
inhibition at 25 µM (U-87 MG): 25%
inhibition at 25 µM (DU-145): 26%
inhibition at 25 µM (MIA PaCa-2): 18%
inhibition at 25 µM (NCI-H460): 33%
inhibition at 25 µM (A-431): 22%
inhibition at 25 µM [1]: 16%
inhibition at 25 µM (A2780): 43%
inhibition at 72 h, 25 µM [2]: 11%
inhibition at 25 µM (MCF7): 16%
inhibition at 25 µM (HT-29): < 10%
inhibition at 25 µM (BE(2)-C): < 10%

O=C1NC(c2cccnc2)Nc2ccccc21 (stereo not given)
inhibition at 25 µM (U-87 MG): < 10%
inhibition at 25 µM (DU-145): < 10%
inhibition at 25 µM (MIA PaCa-2): 11%
inhibition at 25 µM (NCI-H460): < 10%
inhibition at 25 µM (A-431): < 10%
inhibition at 25 µM [1]: < 10%
inhibition at 25 µM (A2780): < 10%
inhibition at 72 h, 25 µM [2]: < 10%
inhibition at 25 µM (MCF7): 21%
inhibition at 25 µM (HT-29): < 10%
inhibition at 25 µM (BE(2)-C): < 10%

O=c1[nH]c(-c2ccccc2Br)nc2ccccc12
inhibition at 25 µM (U-87 MG): 14%
inhibition at 25 µM (DU-145): 25%
inhibition at 25 µM (MIA PaCa-2): 24%
inhibition at 25 µM (NCI-H460): 20%
inhibition at 25 µM (A-431): 12%
inhibition at 25 µM [1]: 11%
inhibition at 25 µM (A2780): 13%
inhibition at 72 h, 25 µM [2]: 17%
inhibition at 25 µM (MCF7): 10%
inhibition at 25 µM (HT-29): 15%
inhibition at 25 µM (BE(2)-C): 23%

COc1cc2c(c(OC)c1OC)-c1ccc(OC)c(=O)cc1[C@@H](NC(C)=O)CC2 [COLCHICINE]
inhibition at 25 µM (U-87 MG): 21%
inhibition at 25 µM (DU-145): 34%
inhibition at 25 µM (MIA PaCa-2): 89%
inhibition at 25 µM (NCI-H460): 35%
inhibition at 25 µM (A-431): 11%
inhibition at 25 µM [1]: 47%
inhibition at 25 µM (A2780): 62%
inhibition at 72 h, 25 µM [2]: 57%
inhibition at 25 µM (MCF7): 85%
inhibition at 25 µM (HT-29): 50%
inhibition at 25 µM (BE(2)-C): 61%

O=C(O)c1cccc(C2NC(=O)c3ccccc3N2)c1 (stereo not given)
inhibition at 25 µM (U-87 MG): 10%
inhibition at 25 µM (DU-145): 31%
inhibition at 25 µM (MIA PaCa-2): 13%
inhibition at 25 µM (NCI-H460): 12%
inhibition at 25 µM (A-431): < 10%
inhibition at 25 µM [1]: 12%
inhibition at 25 µM (A2780): 10%
inhibition at 72 h, 25 µM [2]: 22%
inhibition at 25 µM (MCF7): 43%
inhibition at 25 µM (HT-29): 24%
inhibition at 25 µM (BE(2)-C): 12%
